# According to US10509046B2, “Detection of indazole synthetic cannabinoids” (Randox Laboratories Limited, priority 2014, dated 2019):
# Columns and labels:
# [1] = system: Antibody to AB-Pinaca-KLH (raised against immunogen 2 of Example 6); assay: Competitive ELISA characterising antibodies to AB-Pinaca-KLH with Tracer-1 (Example 9); assay type: binding
# Method: The wells of an enhanced binding 96 well polystyrene microtitre plate were coated with IgG fraction of antiserum raised to AB-Pinaca-KLH (Immunogen 2 of Example 6), diluted in 10 mM Tris, pH8.5 (125 μl/well). The appropriate antibody coating dilution was determined using standard ELISA checkerboard techniques. The plate was incubated for 2 hours at 37° C., washed 4 times over 10 minutes with Tris buffered saline containing Tween 20 (TBST) and tapped dry. Standard solutions of AB-Pinaca pentanoic acid were prepared in TBST at 0, 0.31, 0.63, 1.25, 2.50, 5.0, 10.0 and 20.0 ng/ml, and 50 μl of each was added to the appropriate wells. 75 μl of Tracer-1 (Example 7) diluted in Tris buffer (pH 7.2) containing EDTA, D-mannitol, sucrose, thimerosal and BSA, was added to each of the wells. The appropriate dilution of tracer was also determined using standard ELISA checkerboard techniques. The plate was incubated at 25° C. for 1 hour. Excess unbound tracer was removed by washing 6 times over a 10-15 minute period with TBST and tapped dry. 125 μl of tetramethylbenzidine (TMB) substrate solution was added to each well of the plate that was then incubated for 20 minutes in the dark at room temperature. The reaction was terminated by addition of 125 μl 0.2 M H2SO4 to each well. The absorbance was measured at 450 nm using a microtitre plate reader. In order to determine the specificity of the competitive ELISAs, standard solutions of a range of structurally similar compounds were prepared in TBST. Using calibration curves generated from these compounds (0-20 ng/ml), the cross-reactivity was determined.
# [2] = system: AB-PINACA antibody (raised against immunogen 2 of Example 6); assay: AB-PINACA ELISA, final validated kit with Tracer-2 (Example 10), specificity; assay type: binding; conditions: AB-PINACA N-Pentanoic acid = 100
# Method: A microtitre plates was precoated with AB-PINACA antibody (raised against immunogen 2 of Example 6). Pinaca derivative (antigen), if present in the sample competes with the horseradish peroxidase labelled AB-PINACA (enzyme labelled antigen, herein Tracer-2 of Example 8) for a limited number of antibody sites on the microtitre plate. After incubation at room temperature to allow a competition reaction to take place, the microtitre plate was washed to remove excess reagents. The enzyme substrate ([…]) was added. After an incubation period to allow maximum colour development, the colour reaction was stopped by the addition of acid. This produces a colour change from blue to yellow, and the absorbances are read at 450 nm. A standard curve was then constructed to determine the Pinaca derivative's concentration in the sample.
# All reagents were left to reach room temperature (+15 to +25° C.) prior to use. In order to minimise edge effects microtitre plate was sealed with an adhesive plate sealer.
# The assay was performed in duplicate. The following layout was used for a test plate where each box represents 2 wells.
# • a) The following was pipetted into the appropriate wells of the microtitre plate:
# • b) The microtitre plate was gently tapped plate from side to side for a few seconds. • c) The microtitre plate was covered with a plate sealer before incubating for 30 minutes at room temperature (+15 to +25° C.) in the dark. • d) The plate was inverted and the liquid was tapped out. • e) The plate was washed 6 times with diluted wash buffer (ensuring all wells were filled), over a 10-15 minute period. After the final wash the liquid was discarded and the plate was tapped onto lint free tissue paper until completely dry. • f) Immediately after washing, 125 μL of the one shot substrate II solution was pipetted into each well using a multichannel pipette. The microtitre plate was gently tapped from side to side and incubated for (20±2 minutes) at room temperature (+15 to +25° C.) in the dark. • g) The colour reaction was stopped by the addition of 100 μL of stop solution per well. A colour change from blue to yellow should be evident. • h) The optical density was measured at 450 nm within 10 minutes of stopping the colour reaction. The use of a 630 nm filter is recommended as the reference wavelength, if available. Standard Curve and Interpretation of Results • a) The mean absorbance of the standards, controls and samples were calculated. • b) The absorbances of standards against log10 (standard concentration) were plotted. • c) The control and sample concentrations were read from the standard curve. • d) To obtain concentrations for urine samples in ng/mL, the results were multiplied by 3 to take into account the dilution factor. • e) To obtain concentrations for whole blood samples in ng/mL, the results were multiplied by 4 to take into account the dilution factor. • f) It is recommended that a 4 parameter curve fit method is used when generating the standard curve. Limits of Detection
compound,measurement,setting,value
"CCCCCn1nc(C(=O)NC(C(N)=O)C(C)C)c2ccccc21 (centres unmarked) [AB-Pinaca, N-(1-amino-3-methyl-1-oxobutan-2-yl)-1-pentyl-1H-indazole-3-carboxamide]",% CR (percentage cross-reactivity),[1]; AB-Pinaca = 100.00,100.00%
same,IC50 (standard concentration which produces 50% inhibition of maximal signal),[1]; calibration curves 0-20 ng/ml,1.107 ng/mL
same,B/Bo (Percentage B/B0),[1]; standard conc 0.31 ng/ml,70.1%
same,OD (absorbance at 450 nm),[1]; standard conc 0.31 ng/ml,1.532
same,B/Bo (Percentage B/B0),[1]; standard conc 0.63 ng/ml,60.7%
same,OD (absorbance at 450 nm),[1]; standard conc 0.63 ng/ml,1.325
same,B/Bo (Percentage B/B0),[1]; standard conc 1.25 ng/ml,47.4%
same,OD (absorbance at 450 nm),[1]; standard conc 1.25 ng/ml,1.036
same,B/Bo (Percentage B/B0),[1]; standard conc 2.50 ng/ml,35.6%
same,OD (absorbance at 450 nm),[1]; standard conc 2.50 ng/ml,0.778
same,B/Bo (Percentage B/B0),[1]; standard conc 5.00 ng/ml,27.2%
same,OD (absorbance at 450 nm),[1]; standard conc 5.00 ng/ml,0.593
same,B/Bo (Percentage B/B0),[1]; standard conc 10.00 ng/ml,18.5%
same,OD (absorbance at 450 nm),[1]; standard conc 10.00 ng/ml,0.404
same,B/Bo (Percentage B/B0),[1]; standard conc 20.00 ng/ml,12.2%
same,OD (absorbance at 450 nm),[1]; standard conc 20.00 ng/ml,0.267
same,% Cross-Reactivity,[2],52.4%
